Results as given in publication PMC9656482, “In Vitro and In Vivo Biological Activity of Ruthenium 1,10-Phenanthroline-5,6-dione Arene Complexes” (International Journal of Molecular Sciences, 2022).

How the values were obtained:
[1] = tested on: A2780 cells; assay: Cell cycle analysis (PI staining); type: cell-based, human; conditions: A2780 synchronized with thymidine; IC50 of JHOR11 or 0.1 µM doxorubicin; 5-32 h, relative to DMSO
Experimental: To understand if the complex also presents a cytostatic effect, the cell cycle of A2780 cells was analyzed by DNA staining with PI, after double synchronization with thymidine at the S phase.
The cell cycle analysis was performed by DNA staining with PI according to procedures previously described with few modifications. A2780 cells were seeded in 6-well plates in a cell density of 4 × 10^5 cells/well and the cell cycle was synchronized in the S-phase by double blocking with 2 mM thymidine. […] After 5 h, 9 h, 24 h or 32 h, cells were detached, fixed with 80% (v/v) ethanol, incubated with 50 mg/mL RNase A (NZYtech, Lisbon, Portugal) and stained with […] PI (Thermo Fisher Scientific). The fluorescence of each sample was analyzed in an Attune acoustic focusing cytometer and respective software (Thermo Fisher Scientific).

[2] = tested on: A2780 ovarian carcinoma cell line; assay: MTS antiproliferative assay, A2780; type: cell-based, human
Experimental: The cytotoxic potential of the complexes was evaluated by assessing their viability using the 3-(4,5-dimethylthiazol-2-yl)-5-(3-carboxymethoxyphenyl)-2-(4-sulfophenyl)-2H tetrazolium, inner salt (MTS) colorimetric assay in three tumor cell lines—ovarian carcinoma, A2780, colorectal carcinoma, HCT116, and colorectal carcinoma resistant to doxorubicin, HCT116-Dox and in normal human primary dermal fibroblasts (Figure 1 and Figure S7).
Normal dermal human fibroblasts, colorectal carcinoma cell line HCT116 and ovarian carcinoma cell line A2780 were acquired from ATCC (Manassas, VA, USA). […] Fibroblasts and HCT116 cells were cultured in Dulbecco’s modified Eagle medium (DMEM, Thermo Fisher Scientific) and A2780 cell line was cultured on Roswell Park Memorial institute 1640 (RPMI-1640, Thermo Fisher Scientific). Both media were supplemented with 10% (v/v) fetal bovine serum (FBS, Thermo Fisher Scientific) and a mixture of 100 U/mL penicillin and 100 mg/mL streptomycin. The supplemented media are referred to from this point on as DMEM or RPMI for simplicity. […] All experiments underwent at 37 °C, 5% (v/v) CO2 and 99% (v/v) humidity in the dark.
Cells were seeded in a 96-well plate in a density of 7500 cells/well, and after 24 h was submitted to a concentration range between 0.1–50 µM of complexes JHOR10 and JHOR11. DMSO with a 0.1% (v/v) concentration was used as vector control and cisplatin was used as positive control in all replicates. After 48 h incubation, cellular viability was inferred with the Cell Titer 96® Aqueous One solution cell proliferation assay (Promega, Madison, WI, USA) according to the manufacturer’s instructions and procedures previously described [18, 40]. The absorbance of the produced Formazan was quantified with a Tecan microplate reader, Infinite M200 (Tecan, Mannedorf, Switzerland) and the analysis of the dose–response curves to determine the relative IC50 was performed with GraphPad Prism 8.2.1 software (GraphPad Software, La Jolla, CA, USA).

[3] = tested on: A2780 cells; assay: Apoptosis, Annexin V-Alexa Fluor 488/propidium iodide double staining; type: cell-based, human; conditions: A2780, 48 h, IC50 of the complex
Experimental: To understand if the loss of cell viability of an A2780 cell incubated with JHOR11 is due to cell apoptosis, cells were incubated with the IC50 of the complex and then double-stained with Annexin V, conjugated with AlexaFluor 488 and with propidium iodide (PI) to discriminate between live cells (unstained), cells in initial apoptosis (green-stained cells), cells in late apoptosis (double-stained cells) and cells in necrosis (red-stained cells).
The double staining of the A2780 cells incubated with JHOR11 for apoptosis evaluation followed procedures previously described. Briefly, A2780 cells were seeded on 6-well plates in a density of 2 × 10^5 cells/well, and incubated for 48 h with IC50 JHOR11, 0.1% (v/v) DMSO as vector control, and 3.5 µM cisplatin as positive control. Cells were then detached from the wells and double stained using the dead cell apoptosis kits with Annexin V for flow cytometry (Thermo Fisher Scientific) according to manufacturer’s instructions. The percentage of live cells (unstained), cells in initial apoptosis (stained with annexin V-Alexa Fluor 488), cells in late apoptosis (double stained with annexin V-Alexa Fluor 488 and propidium iodide) or cells in necrosis (stained with propidium iodide) was quantified using an Attune acoustic focusing flow cytometer and respective software (Thermo Fisher Scientific).

[4] = Stability in DMSO-d6-D2O solution by 1H NMR; type: physicochemical; conditions: DMSO-d6-D2O 3:7 (v/v), 110 mM chloride, 48 h
Experimental: To evaluate the stability of complexes in a cell culture medium, powdered complexes were first solubilized in DMSO and then immediately in DMEM, in order to guarantee that no more than 0.1% (v/v) DMSO was present in the medium. […] In addition, the stability of the complexes in solution was investigated by ^1H NMR spectroscopy. The ruthenium complexes were dissolved in DMSO-d6-D2O, in a 3:7 ratio (v/v) with a 110 mM chloride concentration, and the ^1H NMR spectra was recorded immediately and after 48 h. […] This observation is in agreement with the M–Cl aquation processes described for several metallic compounds, such as cisplatin [23]. After 48 h, the ^1H NMR spectrum of JHOR10 was unchanged.
The stability of complexes was evaluated in DMEM (Dulbecco’s modified Eagle’s medium). Powdered complexes JHOR10 and JHOR11 were solubilized in DMSO and then immediately diluted in DMEM without phenol red (Thermo Fisher Scientific, Waltham, MA, USA) to a final concentration of 100 µM, assuring that the final concentration of DMSO was not higher than 0.1% (v/v). The UV-visible spectrum was measured after an incubation at 37 °C for 24 or 48 h (DMEM) in a wavelength range between 260 and 800 nm, using a quartz cuvette with 1 cm path length. A total of 2 mg of each compound was dissolved in DMSOd6-D2O 3:7 (v/v) 110 mM chloride concentration (NaCl), and the ^1H NMR were recorded at 0 h and 48 h on a Bruker Avance III 400 MHz.

[5] = tested on: BAX and BCL-2 protein expression in A2780 cells; conditions: A2780, 48 h, IC50 of JHOR11, normalized to DMSO control = 1
Experimental: The ratio between BAX and BCL-2 protein expression indicates the level of susceptibility of the cell to the intrinsic apoptotic pathway [26, 27, 28]. The BAX and BCL-2 protein expression was quantified by Western blot analysis to calculate the apoptotic index of cells after 48 h incubation with IC50 of JHOR11, using the quantification of β-actin as the internal control and 0.1% (v/v) DMSO as the vehicle control (Figure 4).
The apoptotic index was determined by quantification of BAX and BCL-2 protein expression by Western blot, as previously described [18]. Briefly, 4 × 10^6 cells were seeded on T-flasks with 25 cm^2 for 24 h and then the medium was replaced by a fresh medium supplemented with IC50 JHOR11, 0.1% (v/v) DMSO (vector control) or 0.1 µM doxorubicin (positive control). After 48 h incubation, cells were detached with a cell scraper and BAX, BCL-2 and β-actin proteins were quantified in a PVDF membrane [18]. The apoptotic ratio BAX/BCL-2 was calculated after normalization of the BAX and BCL-2 band intensity with respective β-actin band intensity and to the values of the DMSO-treated sample, measured using ImageJ2 software [41].

Cc1ccc(C(C)C)cc1.F[P-](F)(F)(F)(F)F.O=C1C(=O)c2cccnc2-c2ncccc21.[Cl][Ru+] [JHOR11]
cell cycle effect [1]: slight increase in cells in G2/M phase | IC50 ([2]; 48 h incubation, MTS, read-out: Relative IC50, A2780): 1200 ± 100 nM | selective index in A2780 ([2]; relative to fibroblasts): 37.4 | percentage of apoptotic cells [3]: 3% | stability in solution by 1H NMR after 48 h [4]: the majority of the complex remained intact | apoptotic index (BAX/BCL-2 ratio) [5]: lower than 1
